Measurements: ChEMBL document CHEMBL1201862, “PubChem BioAssay data set” (2004)
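Values below derive from 48-hour exposures of cells grown in 96-well plates, with endpoints linearly interpolated between the two concentrations bracketing the appropriate inhibition level. GI50: concentration for 50% inhibition of growth.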 Calls of active or inactive are those of the source. No stated cut-off is given here; in the data, active = GI50 up to about 1.1 µM and inactive = higher.

Columns and labels:
Assay in all cases: NCI-60 cell line screen, 48 h
[1] = system: CAKI-1
[2] = system: CCRF-CEM
[3] = system: HCT-116
[4] = system: HOP-62
[5] = system: HT-29
[6] = system: Hs-578T
[7] = system: K562
[8] = system: LOX IMVI
[9] = system: MDA-MB-231
[10] = system: MOLT-4
[11] = system: NCI-H460
[12] = system: OVCAR-8
[13] = system: PC-3
[14] = system: SF-268
[15] = system: SF-295
[16] = system: SK-OV-3
[17] = system: SNB-19
[18] = system: UACC-257
[19] = system: UACC-62
[20] = system: MCF7

Measured: GI50

CCSC1=N/C(=C\c2ccccc2O)C(Nc2ccc(C)cc2)=N1
inactive: [1] 86.1 µM | [2] 31 µM | [3] 39.1 µM | [4] 78.2 µM | [5] > 100 µM | [6] 56.1 µM | [7] 28.2 µM | [8] > 100 µM | [9] > 100 µM | [10] 29.2 µM | [11] 38.5 µM | [12] 80.4 µM | [13] 25.9 µM | [14] 71.8 µM | [15] 34.4 µM | [16] 42.7 µM | [17] 45.8 µM | [18] 99.1 µM | [19] > 100 µM

NC1CCCCC1.O=C(CP(=O)(O)O)NC(CC(=O)OCc1ccccc1)C(=O)OCc1ccccc1 (stereo not given)
inactive: [1] > 100 µM | [2] > 100 µM | [3] > 100 µM | [4] > 100 µM | [5] > 100 µM | [6] > 100 µM | [7] > 100 µM | [9] > 100 µM | [10] > 100 µM | [11] > 100 µM | [12] > 100 µM | [13] 24.2 µM | [14] > 100 µM | [15] > 100 µM | [16] > 100 µM | [17] > 100 µM | [18] > 100 µM | [19] > 100 µM

CC(C)Oc1cccc(N2C(NCc3c[nH]c4ccccc34)=Nc3ccncc3S2(=O)=O)c1
inactive: [1] 32.1 µM | [2] 35.2 µM | [3] 27.7 µM | [4] 30.9 µM | [5] 25.1 µM | [6] 16.2 µM | [7] 21.1 µM | [8] 26.9 µM | [20] 18.4 µM | [10] 16.7 µM | [11] 18.5 µM | [12] 29.9 µM | [13] 16.3 µM | [14] 32.2 µM | [15] 18.7 µM | [16] 33.2 µM | [17] 32.4 µM | [18] 31.3 µM | [19] 11.9 µM

CCCC(=O)NC(Nc1ccc(S(=O)(=O)Nc2nc(C)cc(C)n2)cc1)(C(F)(F)F)C(F)(F)F
inactive: [1] > 100 µM | [2] > 100 µM | [3] > 100 µM | [4] > 100 µM | [5] > 100 µM | [6] > 100 µM | [7] > 100 µM | [8] > 100 µM | [9] > 100 µM | [10] > 100 µM | [11] > 100 µM | [12] > 100 µM | [13] > 100 µM | [14] > 100 µM | [15] > 100 µM | [16] > 100 µM | [17] > 100 µM | [18] > 100 µM | [19] > 100 µM
